Results from patent publication US11236129B2, “IL-17A binding peptides and medical uses thereof” (Dompe' Farmaceutici S.P.A., priority 2018, dated 2022).
Residues, ends and D or L forms follow the SMILES beside them.

Molecular target: IL-17RA/IL17RC dimerization induced by IL-17A (Homo sapiens, UniProt Q16552)
Assay: IL-17RA/IL17RC dimerization assay in response to IL-17A (PathHunter Cytokine Receptor Assay)
Assay type: cell-based
Settings: IL-17A at EC80; read-out: IC50 in IL-17RA/IL7RC dimerization assay
Method in brief: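 PathHunter cells with IL-17RA and IL-17RC tagged for β-galactosidase complementation were preincubated 60 min with peptide (1% vehicle). IL-17A was then added at EC80 for 6–16 h at 37 °C, and chemiluminescence was read. Inhibition is relative to the EC80 and vehicle controls.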

Sequence of IL-17RA/IL17RC dimerization induced by IL-17A (Q16552 24-155): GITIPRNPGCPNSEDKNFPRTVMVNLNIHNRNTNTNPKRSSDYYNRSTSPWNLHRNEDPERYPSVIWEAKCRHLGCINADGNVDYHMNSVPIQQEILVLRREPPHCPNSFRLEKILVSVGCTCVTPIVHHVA

Row | SMILES | IC50
1 | CC[C@H](C)[C@H](NC(=O)[C@H](Cc1c[nH]c2ccccc12)NC(=O)[C@H](CC(=O)O)NC(=O)[C@H](Cc1c[nH]c2ccccc12)NC(=O)[C@H](CC(C)C)NC(=O)[C@H](CC(=O)O)NC(=O)[C@H](C)NC(=O)[C@@H]1CCCN1C(=O)[C@@H](NC(=O)[C@@H](NC(=O)[C@@H](NC(=O)[C@H](Cc1c[nH]cn1)NC(=O)[C@@H]1CCCN1C(C)=O)C(C)C)[C@@H](C)O)[C@@H](C)CC)C(=O)N[C@@H](CC(N)=O)C(=O)N[C@@H](CCCCN)C(N)=O [SEQ ID NO: 161] (Ac-PHVTIPADLWDWINK-NH2) | < 10 µM
2 | CC[C@H](C)[C@H](NC(C)=O)C(=O)N[C@@H](CCCNC(=N)N)C(=O)N[C@H](C(=O)N[C@H](C(=O)N[C@H](C(=O)N1CCC[C@H]1C(=O)N[C@@H](C)C(=O)N[C@@H](CC(=O)O)C(=O)N[C@@H](CC(C)C)C(=O)N[C@@H](Cc1c[nH]c2ccccc12)C(=O)N[C@@H](CC(=O)O)C(=O)N[C@@H](Cc1c[nH]c2ccccc12)C(=O)N[C@H](C(=O)N[C@@H](CC(N)=O)C(=O)N[C@@H](CCCCN)C(N)=O)[C@@H](C)CC)[C@@H](C)CC)[C@@H](C)O)C(C)C [SEQ ID NO: 162] (Ac-IRVTIPADLWDWINK-NH2) | < 10 µM
3 | CC[C@H](C)[C@H](NC(C)=O)C(=O)N[C@@H](CCCCN)C(=O)N[C@H](C(=O)N[C@H](C(=O)N[C@H](C(=O)N1CCC[C@H]1C(=O)N[C@@H](C)C(=O)N[C@@H](CC(=O)O)C(=O)N[C@@H](CC(C)C)C(=O)N[C@@H](Cc1c[nH]c2ccccc12)C(=O)N[C@@H](CC(=O)O)C(=O)N[C@@H](Cc1c[nH]c2ccccc12)C(=O)N[C@H](C(=O)N[C@@H](CC(N)=O)C(=O)N[C@@H](CCCCN)C(N)=O)[C@@H](C)CC)[C@@H](C)CC)[C@@H](C)O)C(C)C [SEQ ID NO: 163] (Ac-IKVTIPADLWDWINK-NH2) | < 10 µM
4 | CC[C@H](C)[C@H](NC(C)=O)C(=O)N[C@@H](CCC(=O)O)C(=O)N[C@H](C(=O)N[C@H](C(=O)N[C@H](C(=O)N1CCC[C@H]1C(=O)N[C@@H](C)C(=O)N[C@@H](CC(=O)O)C(=O)N[C@@H](CC(C)C)C(=O)N[C@@H](Cc1c[nH]c2ccccc12)C(=O)N[C@@H](CC(=O)O)C(=O)N[C@@H](Cc1c[nH]c2ccccc12)C(=O)N[C@H](C(=O)N[C@@H](CC(N)=O)C(=O)N[C@@H](CCCCN)C(N)=O)[C@@H](C)CC)[C@@H](C)CC)[C@@H](C)O)C(C)C [SEQ ID NO: 164] (Ac-IEVTIPADLWDWINK-NH2) | < 10 µM
5 | CC[C@H](C)[C@H](NC(C)=O)C(=O)N[C@@H](CCC(N)=O)C(=O)N[C@H](C(=O)N[C@H](C(=O)N[C@H](C(=O)N1CCC[C@H]1C(=O)N[C@@H](C)C(=O)N[C@@H](CC(=O)O)C(=O)N[C@@H](CC(C)C)C(=O)N[C@@H](Cc1c[nH]c2ccccc12)C(=O)N[C@@H](CC(=O)O)C(=O)N[C@@H](Cc1c[nH]c2ccccc12)C(=O)N[C@H](C(=O)N[C@@H](CC(N)=O)C(=O)N[C@@H](CCCCN)C(N)=O)[C@@H](C)CC)[C@@H](C)CC)[C@@H](C)O)C(C)C [SEQ ID NO: 165] (Ac-IQVTIPADLWDWINK-NH2) | < 10 µM
6 | CC[C@H](C)[C@H](NC(C)=O)C(=O)N[C@@H](Cc1ccc(O)cc1)C(=O)N[C@H](C(=O)N[C@H](C(=O)N[C@H](C(=O)N1CCC[C@H]1C(=O)N[C@@H](C)C(=O)N[C@@H](CC(=O)O)C(=O)N[C@@H](CC(C)C)C(=O)N[C@@H](Cc1c[nH]c2ccccc12)C(=O)N[C@@H](CC(=O)O)C(=O)N[C@@H](Cc1c[nH]c2ccccc12)C(=O)N[C@H](C(=O)N[C@@H](CC(N)=O)C(=O)N[C@@H](CCCCN)C(N)=O)[C@@H](C)CC)[C@@H](C)CC)[C@@H](C)O)C(C)C [SEQ ID NO: 166] (Ac-IYVTIPADLWDWINK-NH2) | < 10 µM
7 | CC[C@H](C)[C@H](NC(C)=O)C(=O)N[C@@H](Cc1c[nH]cn1)C(=O)N[C@@H](C)C(=O)N[C@H](C(=O)N[C@H](C(=O)N1CCC[C@H]1C(=O)N[C@@H](C)C(=O)N[C@@H](CC(=O)O)C(=O)N[C@@H](CC(C)C)C(=O)N[C@@H](Cc1c[nH]c2ccccc12)C(=O)N[C@@H](CC(=O)O)C(=O)N[C@@H](Cc1c[nH]c2ccccc12)C(=O)N[C@H](C(=O)N[C@@H](CC(N)=O)C(=O)N[C@@H](CCCCN)C(N)=O)[C@@H](C)CC)[C@@H](C)CC)[C@@H](C)O [SEQ ID NO: 167] (Ac-IHATIPADLWDWINK-NH2) | < 10 µM
8 | CC[C@H](C)[C@H](NC(C)=O)C(=O)N[C@@H](Cc1c[nH]cn1)C(=O)NCC(=O)N[C@H](C(=O)N[C@H](C(=O)N1CCC[C@H]1C(=O)N[C@@H](C)C(=O)N[C@@H](CC(=O)O)C(=O)N[C@@H](CC(C)C)C(=O)N[C@@H](Cc1c[nH]c2ccccc12)C(=O)N[C@@H](CC(=O)O)C(=O)N[C@@H](Cc1c[nH]c2ccccc12)C(=O)N[C@H](C(=O)N[C@@H](CC(N)=O)C(=O)N[C@@H](CCCCN)C(N)=O)[C@@H](C)CC)[C@@H](C)CC)[C@@H](C)O [SEQ ID NO: 168] (Ac-IHGTIPADLWDWINK-NH2) | < 10 µM
9 | CC[C@H](C)[C@H](NC(C)=O)C(=O)N[C@@H](Cc1c[nH]cn1)C(=O)N[C@@H](CC(C)C)C(=O)N[C@H](C(=O)N[C@H](C(=O)N1CCC[C@H]1C(=O)N[C@@H](C)C(=O)N[C@@H](CC(=O)O)C(=O)N[C@@H](CC(C)C)C(=O)N[C@@H](Cc1c[nH]c2ccccc12)C(=O)N[C@@H](CC(=O)O)C(=O)N[C@@H](Cc1c[nH]c2ccccc12)C(=O)N[C@H](C(=O)N[C@@H](CC(N)=O)C(=O)N[C@@H](CCCCN)C(N)=O)[C@@H](C)CC)[C@@H](C)CC)[C@@H](C)O [SEQ ID NO: 169] (Ac-IHLTIPADLWDWINK-NH2) | < 10 µM
10 | CC[C@H](C)[C@H](NC(C)=O)C(=O)N[C@@H](Cc1c[nH]cn1)C(=O)N1CCC[C@H]1C(=O)N[C@H](C(=O)N[C@H](C(=O)N1CCC[C@H]1C(=O)N[C@@H](C)C(=O)N[C@@H](CC(=O)O)C(=O)N[C@@H](CC(C)C)C(=O)N[C@@H](Cc1c[nH]c2ccccc12)C(=O)N[C@@H](CC(=O)O)C(=O)N[C@@H](Cc1c[nH]c2ccccc12)C(=O)N[C@H](C(=O)N[C@@H](CC(N)=O)C(=O)N[C@@H](CCCCN)C(N)=O)[C@@H](C)CC)[C@@H](C)CC)[C@@H](C)O [SEQ ID NO: 170] (Ac-IHPTIPADLWDWINK-NH2) | < 10 µM
11 | CC[C@H](C)[C@H](NC(C)=O)C(=O)N[C@@H](Cc1c[nH]cn1)C(=O)N[C@H](C(=O)N[C@H](C(=O)N[C@H](C(=O)N1CCC[C@H]1C(=O)N[C@@H](C)C(=O)N[C@@H](CC(=O)O)C(=O)N[C@@H](CC(C)C)C(=O)N[C@@H](Cc1c[nH]c2ccccc12)C(=O)N[C@@H](CC(=O)O)C(=O)N[C@@H](Cc1c[nH]c2ccccc12)C(=O)N[C@H](C(=O)N[C@@H](CC(N)=O)C(=O)N[C@@H](CCCCN)C(N)=O)[C@@H](C)CC)[C@@H](C)CC)[C@@H](C)O)[C@@H](C)CC [SEQ ID NO: 171] (Ac-IHITIPADLWDWINK-NH2) | < 10 µM
12 | CC[C@H](C)[C@H](NC(C)=O)C(=O)N[C@@H](Cc1c[nH]cn1)C(=O)N[C@@H](Cc1ccc(O)cc1)C(=O)N[C@H](C(=O)N[C@H](C(=O)N1CCC[C@H]1C(=O)N[C@@H](C)C(=O)N[C@@H](CC(=O)O)C(=O)N[C@@H](CC(C)C)C(=O)N[C@@H](Cc1c[nH]c2ccccc12)C(=O)N[C@@H](CC(=O)O)C(=O)N[C@@H](Cc1c[nH]c2ccccc12)C(=O)N[C@H](C(=O)N[C@@H](CC(N)=O)C(=O)N[C@@H](CCCCN)C(N)=O)[C@@H](C)CC)[C@@H](C)CC)[C@@H](C)O [SEQ ID NO: 172] (Ac-IHYTIPADLWDWINK-NH2) | < 10 µM
13 | CC[C@H](C)[C@H](NC(C)=O)C(=O)N[C@@H](Cc1c[nH]cn1)C(=O)N[C@@H](Cc1c[nH]c2ccccc12)C(=O)N[C@H](C(=O)N[C@H](C(=O)N1CCC[C@H]1C(=O)N[C@@H](C)C(=O)N[C@@H](CC(=O)O)C(=O)N[C@@H](CC(C)C)C(=O)N[C@@H](Cc1c[nH]c2ccccc12)C(=O)N[C@@H](CC(=O)O)C(=O)N[C@@H](Cc1c[nH]c2ccccc12)C(=O)N[C@H](C(=O)N[C@@H](CC(N)=O)C(=O)N[C@@H](CCCCN)C(N)=O)[C@@H](C)CC)[C@@H](C)CC)[C@@H](C)O [SEQ ID NO: 173] (Ac-IHWTIPADLWDWINK-NH2) | < 10 µM
14 | CC[C@H](C)[C@H](NC(C)=O)C(=O)N[C@@H](Cc1c[nH]cn1)C(=O)N[C@@H](Cc1ccccc1)C(=O)N[C@H](C(=O)N[C@H](C(=O)N1CCC[C@H]1C(=O)N[C@@H](C)C(=O)N[C@@H](CC(=O)O)C(=O)N[C@@H](CC(C)C)C(=O)N[C@@H](Cc1c[nH]c2ccccc12)C(=O)N[C@@H](CC(=O)O)C(=O)N[C@@H](Cc1c[nH]c2ccccc12)C(=O)N[C@H](C(=O)N[C@@H](CC(N)=O)C(=O)N[C@@H](CCCCN)C(N)=O)[C@@H](C)CC)[C@@H](C)CC)[C@@H](C)O [SEQ ID NO: 174] (Ac-IHFTIPADLWDWINK-NH2) | < 10 µM
15 | CC[C@H](C)[C@H](NC(C)=O)C(=O)N[C@@H](Cc1c[nH]cn1)C(=O)N[C@H](C(=O)N[C@@H](CO)C(=O)N[C@H](C(=O)N1CCC[C@H]1C(=O)N[C@@H](C)C(=O)N[C@@H](CC(=O)O)C(=O)N[C@@H](CC(C)C)C(=O)N[C@@H](Cc1c[nH]c2ccccc12)C(=O)N[C@@H](CC(=O)O)C(=O)N[C@@H](Cc1c[nH]c2ccccc12)C(=O)N[C@H](C(=O)N[C@@H](CC(N)=O)C(=O)N[C@@H](CCCCN)C(N)=O)[C@@H](C)CC)[C@@H](C)CC)C(C)C [SEQ ID NO: 175] (Ac-IHVSIPADLWDWINK-NH2) | < 10 µM
16 | CC[C@H](C)[C@H](NC(C)=O)C(=O)N[C@@H](Cc1c[nH]cn1)C(=O)N[C@H](C(=O)N[C@@H](Cc1ccc(O)cc1)C(=O)N[C@H](C(=O)N1CCC[C@H]1C(=O)N[C@@H](C)C(=O)N[C@@H](CC(=O)O)C(=O)N[C@@H](CC(C)C)C(=O)N[C@@H](Cc1c[nH]c2ccccc12)C(=O)N[C@@H](CC(=O)O)C(=O)N[C@@H](Cc1c[nH]c2ccccc12)C(=O)N[C@H](C(=O)N[C@@H](CC(N)=O)C(=O)N[C@@H](CCCCN)C(N)=O)[C@@H](C)CC)[C@@H](C)CC)C(C)C [SEQ ID NO: 176] (Ac-IHVYIPADLWDWINK-NH2) | < 10 µM
